From publication PMC10274775 (bioRxiv, 2023)

What was measured:
[1] = molecular target: T1, uniporter with MICU1-MICU1 homodimer (MICU2-KO HEK cells) (Homo sapiens, UniProt Q8NE86+Q9BPX6); assay: Fluo-4 extramitochondrial Ca2+ in digitonin-permeabilized MICU2-KO HEK cells; type: biochemical
T1 sequence (Q8NE86 51-351): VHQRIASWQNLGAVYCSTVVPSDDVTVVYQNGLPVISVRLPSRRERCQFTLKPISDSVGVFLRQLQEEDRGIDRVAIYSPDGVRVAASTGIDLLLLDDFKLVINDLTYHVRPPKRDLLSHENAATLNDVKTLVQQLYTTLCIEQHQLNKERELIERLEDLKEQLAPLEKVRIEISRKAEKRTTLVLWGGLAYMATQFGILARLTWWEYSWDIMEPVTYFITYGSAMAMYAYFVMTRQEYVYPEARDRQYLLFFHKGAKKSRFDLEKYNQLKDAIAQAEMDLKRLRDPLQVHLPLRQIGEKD
T1 sequence (Q9BPX6 34-476): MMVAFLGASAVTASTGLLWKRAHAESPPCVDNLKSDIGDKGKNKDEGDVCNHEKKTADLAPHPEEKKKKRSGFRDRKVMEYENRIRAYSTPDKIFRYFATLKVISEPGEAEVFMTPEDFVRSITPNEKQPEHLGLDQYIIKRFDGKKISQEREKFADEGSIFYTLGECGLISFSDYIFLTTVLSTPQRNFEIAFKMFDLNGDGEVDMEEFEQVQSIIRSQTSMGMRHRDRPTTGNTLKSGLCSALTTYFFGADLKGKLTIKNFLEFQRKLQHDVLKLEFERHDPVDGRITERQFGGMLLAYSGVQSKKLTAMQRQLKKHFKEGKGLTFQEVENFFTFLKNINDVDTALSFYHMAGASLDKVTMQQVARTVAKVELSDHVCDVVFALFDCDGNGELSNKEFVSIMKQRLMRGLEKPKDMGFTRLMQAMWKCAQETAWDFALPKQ
T1 sequence (Q9H4I9 53-107 partner): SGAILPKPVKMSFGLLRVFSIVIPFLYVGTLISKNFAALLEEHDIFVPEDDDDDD

[2] = molecular target: T2, MCU-MICU1 complex (MICU1-1 dimer) (Homo sapiens, UniProt Q8NE86+Q9BPX6); assay: co-immunoprecipitation from HEK lysate, western blot; type: biochemical; conditions: 1 mM spermine, 1 mM EGTA; disruption of the MCU-MICU1 interaction; pH 7.4, 4 mM DDM
T2 sequence (Q8NE86 51-351): T1 sequence (Q8NE86 51-351)
T2 sequence (Q9BPX6 34-476): T1 sequence (Q9BPX6 34-476)

EC50 [1]: 158 µM
SMILES: NCCCNCCCCNCCCN [spermine]
co-immunoprecipitation from HEK lysate, western blot [2]: spermine fully breaks complex formation between MCU and the MICU1-1 dimer
